Test results as given in patent US11331294B2, “Benzoquinone derivative E3330 in combination with chemotherapeutic agents for the treatment of bladder cancer” (Indiana University Research and Technology Corporation, priority 2007, dated 2022).

Legend:
T24 cells = assay: Methylene blue cell growth assay T24; assay type: cell-based; conditions: Homo sapiens, T-24, read-out: cell growth-inhibitory IC50
Procedure: FIGS. 31A & 31B. Treatment with APE1/Ref-1 inhibitors potently blocks bladder cancer cell proliferation and activated Caspase 3/7. […] The IC50 values for FIG. 31A were determined using the methylene blue assay, n=4. […] T24 and UC3 cells were treated with APX2009 and APX2014 at the IC50 and IC90 and monitored over time for activation of capsase 3/7 by an increase in red fluorescence. Time course graphs are shown in FIG. 31B and representative images at 48 hr are shown in FIG. 32A (described more fully below), n=3-4.
FIGS. 36A-36H. […] In cytokine-induced T24 and UC3 cells NFκB-driven luciferase (FIG. 36A), STAT3-driven luciferase (FIG. 36B), and AP-1-driven luciferase (FIG. 36C) were quantified and normalized via Renilla following treatment with the corresponding cell growth-inhibitory IC50 concentrations. T24 cells were treated with APX2009 (8.5 μM) and APX2014 (6.5 μM), and UC3 cells were treated with APX2009 (6.1 μM) and APX2014 (4.6 μM) for 24 h. (*-p<0.05 APX treated vs vehicle, n=4). […] In the panels of FIGS. 36F & 36G, co-expression of survivin and APE1/Ref-1 was analyzed in superficial (FIG. 36F) and invasive human bladder tumors (FIG. 36G) in patients, and found nearly universal overlap of positivity in both in human samples. This was also true in cisplatin-refractory patients from the tissue microarray specimens (FIG. 36H). […]

sensory neurons = assay: Ex vivo model of sensory neurons in culture (neurotoxicity); assay type: cell-based
OVCAR-3 tumor cells = assay: MTS cell survival assay OVCAR-3; assay type: cell-based, human; conditions: about 24 or 72 h
Procedure: Decreased cancer cell survival. MCF-7 or OVCAR-3 cells (about 2-4,000) were aliquoted into each well of a 96-well plate in triplicate and allowed to adhere overnight. APX3330 (RN3-3) was added to the cultures. After about 24 or 72 h, about 0.05 mg/mL 3-(4-5-Dimethylthiazol-2-yl)-5-(3-carboxymethoxyphenyl)-2-(4-sulfophenyl)-2H-tetrazolium salt (MTS) reagent was added to each well and incubated at about 37° C. for about 4 h followed by absorbance measurement at 490 nm. The values were standardized to wells containing media alone. […] Similar effects can be seen in multiple myeloma, prostate, non-small cell lung carcinoma, colon, and glioma derived cells.

[1] = tested on: VEGF release from Hey-C2, SKOV-3X, Panc1, PaCa-2 and Igrov cells; assay: VEGF ELISA on cancer cell supernatants; assay type: cell-based, human; conditions: normoxia and hypoxia, about 24 hrs
Procedure: Inhibition of VEGF release. VEGF enzyme-linked immunosorbent assay (ELISA). Various cancer cell lines were plated in a 24-well plate and treated in duplicates with for about 24 hrs in normoxic (about 21% oxygen) or hypoxic (about 2% oxygen) condition. The supernatants of cells were collected and subjected to an ELISA assay with a kit specific for human VEGF according to the manufacturer (R&D Systems, Minneapolis, Minn.) VEGF ELISA assay results were read in a 96-well format plate reader by measuring absorbance at 450 nm with correction at 540 nm. Hypoxia induced an increase in VEGF release (FIG. 2). (For FIGS. 2-7, black bars=normoxia; gray bars=hypoxia.)
VEGF ELISA Assays. Hey-C2 (ovarian cancer), SKOV-3X (ovarian cancer), Pancl (pancreatic cancer), PaCa-2 (pancreatic cancer), and Igrov (ovarian cancer) cells were plated in a 24-well plate and treated in duplicates with (RN3-3 e) at different concentrations for about 24 hrs in normoxic (about 21% oxygen) or hypoxic (about 2% oxygen) condition. The supernatants of cells were collected and subjected to an ELISA assay with a kit specific for human VEGF according to the manufacturer (R&D Systems, Minneapolis, Minn.). VEGF ELISA assay results were read in a 96-well format plate reader by measuring absorbance at 450 nm with correction at 540 nm.

multiple myeloma cells = assay: Phospho-histone H2AX western blot (DNA double stranded breaks); assay type: cell-based; conditions: combination with melphalan
Procedure: APX3330 in combination with chemotherapeutic Melphalan. […] Synergistic plots made using CalcuSyn software. APX3330 was either given alone or in combination with melphalan. As an indicator of DNA double stranded breaks (DSBs), the phosphorylation of histone H2AX at Ser^139 was measured with a phosphorylation-specific H2AX antibody from Upstate Cell Signaling Solutions (Waltham, Md.). Cells were treated with melphalan alone or melphalan plus APX3330. After drug treatment, exponentially growing cells were harvested, washed in cold PBS, and lysed in about 100 μL RIPA assay buffer as described above. Protein was quantified and electrophoresed in SDS gel-loading buffer on a 12% SDS-polyacrylamide gel. Mouse monoclonal anti-phosphohistone H2AX (about 1:1000) or anti-actin antibody (about 1:1000; as a loading control, LabVision Corp., NeoMarkers, Fremont, Calif.) was used to probe for protein levels as described previously. Bands were detected using a chemiluminescence kit from Roche Applied Biosciences (Indianapolis, Ind.). The bands were visualized using Bio-Rad Chemidoc XRS (Hercules, Calif.) and quantitated using Chemidoc software, Quantity One 4.6.1.

[2] = tested on: subretinal neovascularization (SNV) in vldlr-/- retina; assay: SNV in vldlr-/- knockout mice assay; assay type: in vivo; conditions: single intravitreal injection, one week after treatment
Procedure: SNV in vldlr−/− knockout mice assay. […] Experiments were carried out in very-low-density lipoprotein receptor (vldr) knockout mice to determine the effect of APX3330 on inhibition of SNV development in the vldlr−/− mutant. Each animal received a single intravitreal injection of 1 μl volume of BSS as a vehicle control and the fellow eye received 1 μl of […] APX3330. The final concentration of APX3330 was equivalent to approximately 20 μM in the retina. Quantitative measurement of SNV was carried out one week after the treatment in the whole mount retina after lectin-FITC staining. […] The apparent increase of SNV after antibody injection could be due to foreign protein triggered immune response which has been reported before (Tator et al., 2008). APX3330 reduced the number of SNV at a statistically significant level (p<0.01 in paired t-test). […] The Ape1/Ref-1 inhibitor offers a new approach to control angiogenesis for advanced macular degeneration (AMD) treatment.

endothelial cells = assay: In vitro tube formation assay; assay type: cell-based
Source text: In vitro tube formation assay.

Compound	IC50 (T24 cells) [µM]	neuroprotection against platinum-induced toxicity (sensory neurons)	killing of OVCAR-3 tumor cells (OVCAR-3 tumor cells)	VEGF release [1]	DNA double stranded breaks (phospho-H2AX), melphalan plus APX3330 compared to melphalan alone (multiple myeloma cells)	individuals with reduced number of SNV in treated eye [2]	reduction of number of SNV [2] [%]	tube formation, combination of AVASTIN and APX3330 (endothelial cells; combination use with AVASTIN)	formation of blood-vessel-like tubules (endothelial cells; dose dependent)
CCC/C(=C\C1=C(OC)C(=O)c2ccccc2C1=O)C(=O)N(CC)CC [APX2009, [(2E)-2-[(3-methoxy-1,4-dioxo-1,4-dihydronaphthalen-2-yl)methylidene]-N,N-diethylpentanamide]]	8.5	neuroprotective against cisplatin and oxaliplatin-induced toxicity of sensory neurons	–	–	–	–	–	–	–
CCCCCCCCC/C(=C\C1=C(C)C(=O)C(OC)=C(OC)C1=O)C(=O)O [APX3330]	–	–	dose dependently killed	reduced the amount of VEGF release	increase in DSBs	17/20	~30	synergistically more effective than either alone	prevented formation of blood-vessel-like tubules
